According to patent US20250205181A1 (CZAP RESEARCH AND DEVELOPMENT, LLC, priority 2021, published 2025):

Tests used:
CB2 receptor = CB2 receptor (Mus musculus, UniProt P47936); details: literature value, Lin et al., J Med Chem 1998; cited from earlier work
[1] = Self-reported erectogenic effect / blood flow when tumescent in subject (Examples 1 and 2); format: in vivo, human; details: in conjunction with the 25 mg dosing of the anandamide CD formulation
Method: The subject had been taking various amounts of sildenafil for many years at 10-25 mg increments.
The subject of Example 1 determined that the combined use of these formulations permitted controlled dosing with bolus and/extended release regimens.

Chain of CB2 receptor (P47936 whole entry): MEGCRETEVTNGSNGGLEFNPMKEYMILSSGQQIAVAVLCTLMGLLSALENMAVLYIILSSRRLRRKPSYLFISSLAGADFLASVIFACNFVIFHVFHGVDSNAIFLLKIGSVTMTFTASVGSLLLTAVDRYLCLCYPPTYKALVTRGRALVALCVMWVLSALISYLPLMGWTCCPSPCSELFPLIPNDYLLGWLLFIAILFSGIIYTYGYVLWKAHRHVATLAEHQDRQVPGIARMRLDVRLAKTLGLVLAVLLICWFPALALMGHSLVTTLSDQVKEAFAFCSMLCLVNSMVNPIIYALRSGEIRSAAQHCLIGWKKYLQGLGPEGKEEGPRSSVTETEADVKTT

SMILES	Ki (CB2 receptor) [µM]	effect of 10 mg sildenafil in conjunction with anandamide CD versus 25 mg sildenafil before anandamide CD supplementation [1]
CCCCC/C=C\C/C=C\C/C=C\C/C=C\CCCC(=O)NCCO [anandamide, (5Z,8Z,11Z,14Z)-N-(2-hydroxyethyl)icosa-5,8,11,14-tetraenamide]	> 1	
CCCc1nn(C)c2c(=O)[nH]c(-c3cc(S(=O)(=O)N4CCN(C)CC4)ccc3OCC)nc12 [sildenafil]		more noticeable results
